From ChEMBL document CHEMBL4043267, “Synthesis of photocaged 6-O-(2-nitrobenzyl)guanosine and 4-O-(2-nitrobenzyl) uridine triphosphates for photocontrol of the RNA transcription reaction” (Bioorg Med Chem, 2017)
The source made the active and inactive calls. The rule behind the calls is not given here.

Legend:
[1] = biological target: T7 RNA polymerase (Enterobacteria phage T7) (UniProt P00573); assay: Inhibition of T7 RNA polymerase assessed as RNA product formation at 5 mM using double stranded DNA as substrate after 4 hrs in presence of NTPs by sybrGOLD staining based fluorescence assay (reference value: 100%); set-up: scale not given: the % may be the effect or the level left; conditions: Escherichia phage T7
[2] = biological target: T7 RNA polymerase (Enterobacteria phage T7) (UniProt P00573); assay: Inhibition of T7 RNA polymerase assessed as RNA product formation at 2 mM using double stranded DNA as substrate after 4 hrs in presence of NTPs by sybrGOLD staining based fluorescence assay (reference value: 100%); set-up: scale not given: the % may be the effect or the level left; conditions: Escherichia phage T7
[3] = biological target: T7 RNA polymerase (Enterobacteria phage T7) (UniProt P00573); assay: Inhibition of T7 RNA polymerase assessed as RNA product formation at 0.2 mM using double stranded DNA as substrate after 4 hrs in presence of NTPs by sybrGOLD staining based fluorescence assay (reference value: 100%); set-up: scale not given: the % may be the effect or the level left; conditions: Escherichia phage T7
[4] = biological target: T7 RNA polymerase (Enterobacteria phage T7) (UniProt P00573); assay: Inhibition of T7 RNA polymerase assessed as RNA product formation at 0.5 mM using double stranded DNA as substrate after 4 hrs in presence of ATP/UTP/CTP by sybrGOLD staining based fluorescence assay (reference value: 100%); set-up: scale not given: the % may be the effect or the level left; conditions: Escherichia phage T7
[5] = biological target: T7 RNA polymerase (Enterobacteria phage T7) (UniProt P00573); assay: Inhibition of T7 RNA polymerase assessed as RNA product formation at 1 mM using double stranded DNA as substrate after 4 hrs in presence of NTPs by sybrGOLD staining based fluorescence assay (reference value: 100%); set-up: scale not given: the % may be the effect or the level left; conditions: Escherichia phage T7
[6] = biological target: T7 RNA polymerase (Enterobacteria phage T7) (UniProt P00573); assay: (§1) Inhibition of T7 RNA polymerase assessed as RNA product formation at 2 mM using double stranded DNA as substrate incubated in presence of UV irradiation for 5 secs followed by enzyme addition measured after 4 hrs in presence of NTPs by sybrGOLD staining based fluorescence assay relative to control; set-up: scale not given: the % may be the effect or the level left; conditions: Escherichia phage T7
[7] = biological target: T7 RNA polymerase (Enterobacteria phage T7) (UniProt P00573); assay: Inhibition of T7 RNA polymerase assessed as RNA product formation at 2 mM using double stranded DNA as substrate incubated in presence of UV irradiation for 10 secs followed by enzyme addition measured after 4 hrs in presence of NTPs by sybrGOLD staining based fluorescence assay relative to controll; set-up: scale not given: the % may be the effect or the level left; conditions: Escherichia phage T7
[8] = biological target: T7 RNA polymerase (Enterobacteria phage T7) (UniProt P00573); assay: as §1, with “assessed as reduction in RNA product” for “assessed as RNA product”, “irradiation for 40 secs followed” for “irradiation for 5 secs followed”; set-up: scale not given: the % may be the effect or the level left; conditions: Escherichia phage T7
[9] = biological target: T7 RNA polymerase (Enterobacteria phage T7) (UniProt P00573); assay: as §1, with “assessed as reduction in RNA product” for “assessed as RNA product”, “irradiation for 60 secs followed” for “irradiation for 5 secs followed”; set-up: scale not given: the % may be the effect or the level left; conditions: Escherichia phage T7
[10] = biological target: T7 RNA polymerase (Enterobacteria phage T7) (UniProt P00573); assay: Inhibition of T7 RNA polymerase assessed as RNA product formation at 2 mM using double stranded DNA as substrate incubated in presence of UV irradiation for 20 secs followed by enzyme addition measured after 4 hrs in presence of NTPs by sybrGOLD staining based fluorescence assay relative to control; set-up: scale not given: the % may be the effect or the level left; conditions: Escherichia phage T7
[11] = biological target: T7 RNA polymerase (Enterobacteria phage T7) (UniProt P00573); assay: Inhibition of T7 RNA polymerase assessed as RNA product formation at 2 mM using double stranded DNA as substrate incubated in presence of UV irradiation for 1 sec followed by enzyme addition measured after 4 hrs in presence of NTPs by sybrGOLD staining based fluorescence assay relative to control; set-up: scale not given: the % may be the effect or the level left; conditions: Escherichia phage T7
[12] = biological target: T7 RNA polymerase (Enterobacteria phage T7) (UniProt P00573); assay: (§2) Inhibition of T7 RNA polymerase assessed as reduction in RNA product formation using double stranded DNA as substrate after 4 hrs in presence of NTPs by sybrGOLD staining based fluorescence assay (reference value: 100%); conditions: Escherichia phage T7
[13] = biological target: T7 RNA polymerase (Enterobacteria phage T7, UniProt P00573); assay: as §2; set-up: species or system Escherichia phage T7
[14] = biological target: T7 RNA polymerase (Enterobacteria phage T7) (UniProt P00573); assay: Inhibition of T7 RNA polymerase assessed as RNA product formation at 10 mM using double stranded DNA as substrate after 4 hrs in presence of NTPs by sybrGOLD staining based fluorescence assay (reference value: 100%); set-up: scale not given: the % may be the effect or the level left; conditions: Escherichia phage T7
[15] = biological target: T7 RNA polymerase (Enterobacteria phage T7) (UniProt P00573); assay: Inhibition of T7 RNA polymerase assessed as reduction in RNA product formation at 2 mM using double stranded DNA as substrate incubated in absence of UV irradiation followed by enzyme addition measured after 4 hrs in presence of NTPs by sybrGOLD staining based fluorescence assay relative to control; conditions: Escherichia phage T7
[16] = biological target: T7 RNA polymerase (Enterobacteria phage T7) (UniProt P00573); assay: Inhibition of T7 RNA polymerase assessed as reduction in RNA product formation at 2 mM using double stranded DNA as substrate after 4 hrs in absence of NTPs by sybrGOLD staining based fluorescence assay (reference value: 100%); conditions: Escherichia phage T7

Sequence of T7 RNA polymerase (Enterobacteria phage T7) (P00573 whole entry): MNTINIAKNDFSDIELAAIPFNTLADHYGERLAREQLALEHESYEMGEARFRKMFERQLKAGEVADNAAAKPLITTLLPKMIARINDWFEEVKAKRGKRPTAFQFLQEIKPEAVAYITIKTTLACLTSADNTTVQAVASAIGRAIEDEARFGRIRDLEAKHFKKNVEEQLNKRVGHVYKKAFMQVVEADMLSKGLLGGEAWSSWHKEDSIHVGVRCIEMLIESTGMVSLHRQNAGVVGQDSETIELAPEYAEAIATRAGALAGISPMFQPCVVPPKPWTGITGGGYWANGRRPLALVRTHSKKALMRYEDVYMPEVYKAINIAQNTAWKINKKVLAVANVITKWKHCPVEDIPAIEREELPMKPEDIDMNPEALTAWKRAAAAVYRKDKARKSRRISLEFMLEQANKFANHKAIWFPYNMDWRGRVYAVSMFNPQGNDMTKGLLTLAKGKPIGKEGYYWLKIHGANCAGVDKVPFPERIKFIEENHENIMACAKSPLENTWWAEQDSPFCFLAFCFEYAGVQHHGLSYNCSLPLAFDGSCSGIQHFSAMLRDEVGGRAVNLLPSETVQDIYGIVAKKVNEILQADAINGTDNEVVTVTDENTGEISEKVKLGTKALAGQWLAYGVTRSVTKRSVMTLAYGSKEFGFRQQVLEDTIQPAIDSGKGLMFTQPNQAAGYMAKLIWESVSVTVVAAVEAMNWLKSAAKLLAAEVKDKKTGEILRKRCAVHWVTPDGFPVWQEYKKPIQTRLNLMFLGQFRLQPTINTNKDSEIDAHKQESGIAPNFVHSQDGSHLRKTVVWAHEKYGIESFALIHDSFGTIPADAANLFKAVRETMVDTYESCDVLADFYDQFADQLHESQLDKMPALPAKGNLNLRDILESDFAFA
Sequence of T7 RNA polymerase (P00573 whole entry): as above

SMILES | Activity [1] [%] | Activity [2] [%] | Activity [3] [%] | Activity [4] [%] | Activity [5] [%] | Activity [6] [%] | Activity [7] [%] | Activity [8] [%] | Activity [9] [%] | Activity [10] [%] | Activity [11] [%] | inhibition [12] | IC50 [13] [mM] | Activity [14] [%] | inhibition [15] | inhibition [16]
O=c1nc(OCc2ccccc2[N+](=O)[O-])ccn1[C@@H]1O[C@H](COP(=O)(O)OP(=O)(O)OP(=O)(O)O)[C@@H](O)[C@H]1O | 39 | 63 to 70 | 94 | 84 | 73 | 81 | 72 | 66 | 60 | 70 | 67 | Dose-dependent effect | 5 | 8 | Active | –
Nc1nc(OCc2ccccc2[N+](=O)[O-])c2ncn([C@@H]3O[C@H](COP(=O)(O)OP(=O)(O)OP(=O)(O)O)[C@@H](O)[C@H]3O)c2n1 | 47 | 60 to 64 | 89 | 89 | 87 | 41 | 53 | 64 | 62 | 62 | 4 | Dose-dependent effect | 5 | 13 | Active | Active
